Several values for one entry are separate records, joined by “and”; a condition that tells them apart may be missing. Equal entries are not always repeated. Entries after “also recorded” stand apart in the source; their conditions may differ. Where two headings read alike, the source gives them in different places.
Assay: Plasma kinetics in rat following intravenous and oral administration
Format: in vivo, Sprague Dawley rats
Conditions: male rats; for concentration at 24 h: iv; for MRT: read-out: MRT
Procedure: This study determined the intravenous pharmacokinetics and oral bioavailability of compound 1 of the invention (see FIG. 1A, structure no. 1), compound 2 of the invention (see FIG. 1D, structure no. 19) and compound 3 of the invention (see FIG. 1I, structure no. 53) following administration to Sprague Dawley rats at a dose level of 10 mg/kg.
Six groups of 3 male rats received either a single intravenous or single oral administration of compound 1, 2 or 3 of the invention at a dose level of 10 mg/kg. Blood samples were obtained at various times after dosing. Plasma samples were analysed for unchanged test item using a suitable LC-MS/MS method. Pharmacokinetic parameters were estimated from individual plasma concentrations.
Eighteen male rats each received either a single intravenous or a single oral administration of either compound 1, 2 or 3 at a dose level of 10 mg/kg. The formulation was orally administered to each animal by gastric gavage and intravenously administered to each animal via a tail vein. The dose was administered at a dose volume of 5 mL/kg. The formulations were administered to each animal according to the details in the following table:
Blood samples (ca 0.3 mL) were removed from the femoral vein of each animal into tubes containing lithium heparin as anticoagulant.
Blood samples were collected from 3 rats at the following times after dose administration: • 3, 6, 15, 45 min and 1.5, 2.5, 4, 6, 8, 24 h post dose. Oral Administration
Blood samples were collected from 3 rats at the following times after dose administration: • 5, 15, 45 min and 1.5, 2.5, 4, 6, 8, 24 h post dose. Processing of Blood Samples
Pharmacokinetic parameters of compound 1, 2 and 3 were derived by non-compartmental analysis using WinNonLin Pro version 5.0.1 (Pharsight 2005). The following parameters were derived, where appropriate, from the individual plasma concentration versus time profiles:
• F % The absolute oral bioavailability calculated as [AUC0-t (oral)*Dose(iv)/AUC0-t (iv)*Dose (oral)]*100 based on mean values derived after oral and intravenous administration Consideration was given to the estimation of λz and corresponding t1/2 values. Three or more points are required within the terminal phase for λz and t1/2 to be estimated. The following additional variables were tabulated to aid identification of potentially unreliable estimates of t1/2 and AUC:
Pharmacokinetic parameters were reported as geometric mean except Tmax which was reported as the median. Geometric coefficient of variation was calculated as: […]
Actual sampling times were used for all calculations of pharmacokinetic parameters. Plasma concentrations that were below the limit of quantification were taken as zero for the pharmacokinetic analysis.

[1] = male, Sprague Dawley, rat, plasma, po, 10 mg/kg, oral 10 mg/kg, individual animals
[2] = oral 10 mg/kg, individual animals, acetate, 10 mg/kg

Work on N=C(N)NN=CC=Cc1cccn1-c1ccccc1[N+](=O)[O-] [Compound 2, [1-(2-nitrophenyl)-1H-pyrrol-2-yl-allylideneamino]guanidinium acetate] yielded a concentration at 24 h (male, Sprague Dawley, rat, plasma, 10 mg/kg, single intravenous 10 mg/kg, 24 h, individual animals, LLOQ 2.50, read-out: Sample Concentration in plasma) of 3.95 ng/mL, a concentration at 24 h (male, Sprague Dawley, rat, plasma, 10 mg/kg, single intravenous 10 mg/kg, 24 h, mean, read-out: Mean Concentration in plasma) of 3.95 ng/mL and an AUC(0-t) (male, Sprague Dawley, rat, plasma, po, 10 mg/kg, oral 10 mg/kg, Arithmetic Mean, read-out: AUC0-t) of 67.4 ng·h/mL. It also gave a Cmax (male, Sprague Dawley, rat, plasma, po, 10 mg/kg, oral 10 mg/kg, Arithmetic Mean, read-out: Cmax) of 31.2 ng/mL, a Tmax (male, Sprague Dawley, rat, plasma, po, 10 mg/kg, oral 10 mg/kg, Arithmetic Mean, read-out: tmax) of 1.75 h and an AUC(0-t) (male, Sprague Dawley, rat, plasma, po, 10 mg/kg, oral 10 mg/kg, Geometric mean, read-out: AUC0-t) of 66.1 ng·h/mL. The Cmax (male, Sprague Dawley, rat, plasma, po, 10 mg/kg, oral 10 mg/kg, Geometric mean, read-out: Cmax) was 26.3 ng/mL, the MRT (male, Sprague Dawley, rat, plasma, po, 10 mg/kg, oral 10 mg/kg, Geometric mean) was 3.06 h and the half-life (male, Sprague Dawley, rat, plasma, po, 10 mg/kg, oral 10 mg/kg, Geometric mean, read-out: t1/2 (converted)) was 2.25 h. It also gave a Tmax (male, Sprague Dawley, rat, plasma, po, 10 mg/kg, oral 10 mg/kg, Geometric mean, read-out: tmax) of 1.16 h, an AUC(0-t) (male, Sprague Dawley, rat, plasma, po, 10 mg/kg, oral 10 mg/kg, Median, read-out: AUC0-t) of 62.6 ng·h/mL and a Cmax (male, Sprague Dawley, rat, plasma, po, 10 mg/kg, oral 10 mg/kg, Median, read-out: Cmax) of 18.8 ng/mL. For the same compound, the Tmax (male, Sprague Dawley, rat, plasma, po, 10 mg/kg, oral 10 mg/kg, Median, read-out: tmax) was 2.5 h, the AUC(0-inf) [1] was 102 ng·h/mL and the AUC(0-t) (male, Sprague Dawley, rat, plasma, po, 10 mg/kg, oral 10 mg/kg, individual animals, read-out: AUC0-t) was 85.6 ng·h/mL. It also gave an MRT [1] of 3.06 h, a half-life (male, Sprague Dawley, rat, plasma, po, 10 mg/kg, oral 10 mg/kg, individual animals, read-out: t1/2 (converted)) of 2.25 h and a Tmax (male, Sprague Dawley, rat, plasma, po, 10 mg/kg, oral 10 mg/kg, from mean plasma concentrations, read-out: time post dose at which maximum plasma concentration was observed (tmax)) of 2.5 h. The half-life (male, Sprague Dawley, rat, plasma, po, 10 mg/kg, oral 10 mg/kg, read-out: apparent terminal half-life (converted)) was 2.25 h, the concentration at 0.05 h (male, Sprague Dawley, rat, plasma, po, 10 mg/kg, single oral 10 mg/kg, 0.05 h, individual animals, LLOQ 2.50, read-out: Sample Concentration in plasma) was 4.68 ng/mL and the concentration at 0.05 h (male, Sprague Dawley, rat, plasma, po, 10 mg/kg, single oral 10 mg/kg, 0.05 h, mean, read-out: Mean Concentration in plasma) was 4.68 ng/mL. It also gave a concentration at 0.25 h (male, Sprague Dawley, rat, plasma, po, 10 mg/kg, single oral 10 mg/kg, 0.25 h, mean of 3, read-out: Mean Concentration in plasma) of 25.5 ng/mL, a concentration at 0.75 h (male, Sprague Dawley, rat, plasma, po, 10 mg/kg, single oral 10 mg/kg, 0.75 h, mean of 3, read-out: Mean Concentration in plasma) of 13.9 ng/mL and a concentration at 1.5 h (male, Sprague Dawley, rat, plasma, po, 10 mg/kg, single oral 10 mg/kg, 1.5 h, individual animals, read-out: Sample Concentration in plasma) of 9.56 ng/mL. It also gave a concentration at 1.5 h (male, Sprague Dawley, rat, plasma, po, 10 mg/kg, single oral 10 mg/kg, 1.5 h, mean of 3, read-out: Mean Concentration in plasma) of 12.3 ng/mL, a concentration at 2.5 h (male, Sprague Dawley, rat, plasma, po, 10 mg/kg, single oral 10 mg/kg, 2.5 h, individual animals, read-out: Sample Concentration in plasma) of 16.5 ng/mL and a concentration at 2.5 h (male, Sprague Dawley, rat, plasma, po, 10 mg/kg, single oral 10 mg/kg, 2.5 h, mean of 3, read-out: Mean Concentration in plasma) of 17.1 ng/mL. It also gave a concentration at 4 h (male, Sprague Dawley, rat, plasma, po, 10 mg/kg, single oral 10 mg/kg, 4 h, mean of 3, read-out: Mean Concentration in plasma) of 7.91 ng/mL, a concentration at 6 h (male, Sprague Dawley, rat, plasma, po, 10 mg/kg, single oral 10 mg/kg, 6 h, individual animals, read-out: Sample Concentration in plasma) of 2.76 ng/mL and a concentration at 6 h (male, Sprague Dawley, rat, plasma, po, 10 mg/kg, single oral 10 mg/kg, 6 h, mean of 3, read-out: Mean Concentration in plasma) of 3.81 ng/mL. The MAT (oral 10 mg/kg, individual animals) was -0.465 h, the AUC(0-t) [2] was 62.6 ng·h/mL and 54.0 ng·h/mL and the Cmax [2] was 58.4 ng/mL and 16.5 ng/mL. The Tmax [2] was 0.250 h, the “maximum observed plasma concentration, mean value” (oral 10 mg/kg, at tmax) was 17.1 ng/mL and the “Sample Concentration in plasma” value (single intravenous 10 mg/kg, 0.05 h, individual animals, acetate, 10 mg/kg) was 2270 ng/mL and 3150 ng/mL. For the same compound, the “Sample Concentration in plasma” value (single intravenous 10 mg/kg, 0.1 h, individual animals, acetate, 10 mg/kg) was 1020 ng/mL and 1410 ng/mL, the “Sample Concentration in plasma” value (single intravenous 10 mg/kg, 0.25 h, individual animals, acetate, 10 mg/kg) was 612 ng/mL and 712 ng/mL and the “Sample Concentration in plasma” value (single intravenous 10 mg/kg, 0.75 h, individual animals, acetate, 10 mg/kg) was 237 ng/mL and 334 ng/mL. For the same compound, the “Sample Concentration in plasma” value (single intravenous 10 mg/kg, 1.5 h, individual animals, acetate, 10 mg/kg) was 232 ng/mL and 168 ng/mL, the “Sample Concentration in plasma” value (single intravenous 10 mg/kg, 2.5 h, individual animals, acetate, 10 mg/kg) was 183 ng/mL and 194 ng/mL and the “Sample Concentration in plasma” value (single intravenous 10 mg/kg, 4 h, individual animals, acetate, 10 mg/kg) was 158 ng/mL and 115 ng/mL. For the same compound, the “Sample Concentration in plasma” value (single intravenous 10 mg/kg, 6 h, individual animals, acetate, 10 mg/kg) was 116 ng/mL and 58.1 ng/mL, the “Sample Concentration in plasma” value (single intravenous 10 mg/kg, 8 h, individual animals, LLOQ 2.50, acetate, 10 mg/kg) was 42.7 ng/mL and 98.4 ng/mL and 54.1 ng/mL and the “Sample Concentration in plasma” value (single intravenous 10 mg/kg, 24 h, individual animals, LLOQ 2.50, acetate, 10 mg/kg) was “<LLOQ”. For the same compound, the adverse effects (single intravenous or oral administration, 10 mg/kg, acetate) was “No adverse effects; also recorded: No adverse affects”, the “Sample Concentration in plasma” value (single oral 10 mg/kg, 0.05 h, individual animals, LLOQ 2.50, acetate, 10 mg/kg) was “<LLOQ” and the “Sample Concentration in plasma” value (single oral 10 mg/kg, 0.25 h, individual animals, acetate, 10 mg/kg) was 9.11 ng/mL and 9.01 ng/mL and 58.4* ng/mL. For the same compound, the “Sample Concentration in plasma” value (single oral 10 mg/kg, 0.75 h, individual animals, acetate, 10 mg/kg) was 9.02 ng/mL and 10.4 ng/mL and 22.4 ng/mL, the “Sample Concentration in plasma” value (single oral 10 mg/kg, 1.5 h, individual animals, acetate, 10 mg/kg) was 9.84 ng/mL and 17.4 ng/mL and the “Sample Concentration in plasma” value (single oral 10 mg/kg, 2.5 h, individual animals, acetate, 10 mg/kg) was 18.8 ng/mL and 16.1 ng/mL. For the same compound, the “Sample Concentration in plasma” value (single oral 10 mg/kg, 4 h, individual animals, acetate, 10 mg/kg) was 12.6 ng/mL and 4.79 ng/mL and 6.35 ng/mL, the “Sample Concentration in plasma” value (single oral 10 mg/kg, 6 h, individual animals, acetate, 10 mg/kg) was 3.74 ng/mL and 4.94 ng/mL and the “Sample Concentration in plasma” value (single oral 10 mg/kg, 8 h, individual animals, LLOQ 2.50) was “<LLOQ”. For the same compound, the “Mean Concentration in plasma” value (single oral 10 mg/kg, 8 h, mean, LLOQ 2.50) was “<LLOQ”, the “Sample Concentration in plasma” value (single oral 10 mg/kg, 24 h, individual animals, LLOQ 2.50) was “<LLOQ” and the “Mean Concentration in plasma” value (single oral 10 mg/kg, 24 h, mean, LLOQ 2.50) was “<LLOQ”.

Reference: patent US8058306B2, “Phenyl pyrrole aminoguanidine derivatives” (Action Pharma A/S, priority 2006, dated 2011)
